Reference: US20210302113A1, “FLUORINATED DIAMINOOLEFINS AND METHODS OF USING THE SAME” (3M INNOVATIVE PROPERTIES COMPANY, priority 2017, published 2021)

Experiment: Thermal stability with absorbents, GC-FID purity after stirring at 60° C. for 24 h
Format: physicochemical
Experimental: The thermal stability was measured by charging a weighed amount of (E)-1,4-bis(perfluoromorpholino)but-2-ene (having a purity of 98.8%) into glass vials and then adding a weighed amount of absorbent. (The purity of the composition was measured by analyzing the sample using GC-FID and comparing the area of the peak of interest to the total peak areas in the chromatogram.) The mixture was stirred at 60° C. for 24 h and then analyzed by GC-FID. The percent purity of the treated sample was determined by the peak area of the (E)-1,4-bis(perfluoromorpholino)but-2-ene peak versus the total peak areas in the GC-FID chromatogram.

With `FC1(F)OC(F)(F)C(F)(F)N(C/C=C/CN2C(F)(F)C(F)(F)OC(F)(F)C2(F)F)C1(F)F` [(E)-1,4-bis(perfluoromorpholino)but-2-ene] the “GC Purity” value (4 Angstrom Molecular Sieves, starting purity 98.8%) was 98.8%, the “GC Purity” value (Activated Carbon, starting purity 98.8%) was 98.8% and the “GC Purity” value (Basic Alumina, starting purity 98.8%) was 99.5%. For the same compound, the “GC Purity” value (K2CO3, starting purity 98.8%) was 98.9%, the “GC Purity” value (No Adsorbent, starting purity 98.8%) was 98.8% and the “GC Purity” value (Silica Gel, starting purity 98.8%) was 98.8%.
